Laboratory results from patent US9872861B2, “Methods of treatment using selective Bcl-2 inhibitors” (AbbVie Inc., priority 2010, dated 2018).
Marks after values point to notes of the source that are not given here.

Tests used:
[1] = test system: spontaneous (NZB×NZW)F1 murine model of lupus; assay: Spontaneous (NZB×NZW)F1 murine model of lupus: proteinuria, survival, lymphopenia; format: in vivo, (NZB×NZW)F1 mice
Source text: (See Liu, K. and C. Mohan, What do mouse models teach us about human SLE? Clin Immunol, 2006. 119(2): p. 123-30) This model has been well-characterized with respect to the patho-physiological changes analogous to those of human SLE. […] Renal histopathological changes include severe glomerulonephritis, mesangial and peripheral proliferative changes, capillary membrane thickening, tubular atrophy, and infiltration of lymphocytes and monocytes/macrophages as in the majority of human SLE patients. These changes result in disruption of kidney function as evidenced by severe proteinuria (PU) greater than 300 mg/dL as measured by albumin sticks, followed by mortality as measured by survival. […] (See Gelfand, M. C. and A. D. Steinberg, Therapeutic studies in NZB-W mice. II. Relative efficacy of azathioprine, cyclophosphamide and methylprednisolone. Arthritis Rheum, 1972. 15(3): p. 247-52; and Ramos, M. A., et al., Modulation of autoantibody production by mycophenolate mofetil: effects on the development of SLE in (NZB×NZW)F1 mice. Nephrol Dial Transplant, 2003. 18(5): p. 878-83)
(NZB×NZW)F1 females were purchased from The Jackson Laboratory (Bar Harbor, Me., USA) and maintained in a conventional animal housing facility throughout the experiment. […] Proteinuria (PU) and survival were monitored weekly, followed by biweekly measurement of lymphocyte and platelet counts, and anti-ds DNA production. PK parameters were also measured throughout the study. Impact on IgG deposition and renal pathology were assessed at the conclusion of the study. Severe PU was defined by two consecutive weekly measurements of PU 300 mg/dl using Albustix test strips (VWR). When mice became moribund, they were sacrificed according to Institutional Animal Care and Use Committee protocols. PU and survival data were presented as Kaplan-Meyer survival curves using Graphpad Prism software and group differences were considered significant at the level of p<0.05. Histologic scores were analyzed using ANOVA analysis. Anti-ds DNA were analyzed using one-way ANOVA analysis and Tukey post-test.

[2] = Exposure in IFNα-induced lupus model; format: in vivo
Experimental: Treatment was initiated in a late-prophylactic mode (7 days after IFNα adenovirus). […] All treatment groups were administered treatment 7 days after adenovirus injection. Following adenovirus injection, mice were monitored weekly for proteinuria (PU) using Albustix test strips (VWR). Severe PU was defined by consecutive weekly measurements of PU≧300 mg/dl. When mice became moribund, they were sacrificed according to Institutional Animal Care and Use Committee protocols.

[3] = Exposure in spontaneous lupus model; format: in vivo; details: 30 mg/kg dosing
Source text: When mice became moribund, they were sacrificed according to Institutional Animal Care and Use Committee protocols.

[4] = test system: cells dependent on Bcl-2 for survival; assay: Mechanism of cell killing (apoptosis hallmarks); format: cell-based
Source text: As also shown in Table 1B, additional compounds show selective binding affinity for Bcl-2 over Bcl-XL and other Bcl-2 family proteins.

[5] = test system: FL5.12-Bcl-2 cells; assay: Cellular efficacy in FL5.12 cells dependent on Bcl-2; format: cell-based, murine; details: Mus musculus, 3% FBS

Structure (SMILES): CC1(C)CCC(CN2CCN(c3ccc(C(=O)NS(=O)(=O)c4ccc(NCC5CCOCC5)c([N+](=O)[O-])c4)c(Oc4cnc5[nH]ccc5c4)c3)CC2)=C(c2ccc(Cl)cc2)C1 [Compound 1, 4-(4-{[2-(4-chlorophenyl)-4,4-dimethylcyclohex-1-en-1-yl]methyl}piperazin-1-yl)-N-({3-nitro-4-[(tetrahydro-2H-pyran-4-ylmethyl)amino]phenyl}sulfonyl)-2-(1H-pyrrolo[2,3-b]pyridin-5-yloxy)benzamide]
- % Mice with PU < 300 mg/dL ([1]; Week 47, 1 mg/kg daily oral): 51%
- % Survival ([1]; Week 47, 1 mg/kg daily oral): 60%
- % Mice with PU < 300 mg/dL ([1]; Week 47, 3 mg/kg daily oral): 50%
- % Survival ([1]; Week 47, 3 mg/kg daily oral): 70%
- % Mice with PU < 300 mg/dL ([1]; Week 47, 10 mg/kg daily oral): 66* %
- % Survival ([1]; Week 47, 10 mg/kg daily oral): 83* %
- % Mice with PU < 300 mg/dL ([1]; Week 47, 30 mg/kg daily oral): 94* %
- % Survival ([1]; Week 47, 30 mg/kg daily oral): 100* %
- % Mice with PU < 300 mg/dL ([1]; Week 47, 100 mg/kg daily oral): 100* %
- % Survival ([1]; Week 47, 100 mg/kg daily oral): 100* %
- lymphopenia in peripheral blood ([1]; spontaneous model, 30 mg/kg): 70%
- lymphopenia in peripheral blood ([1]; spontaneous model, 100 mg/kg): 70%
- survival ([1]; spontaneous model, 3, 10, 30 and 100 mg/kg): significantly prolonged survival
- onset of severe PU ([1]; spontaneous model, reaching significance at 10, 30 and 100 mg/kg): delayed onset of severe PU in a dose-dependent fashion
- target efficacious exposure [2]: approximately 40 μg·h/mL
- exposure [3]: 40000 ng·h/mL
- hallmarks of apoptotic cell death [4]: rapid cytochrome c release, caspase-3 and -7 activation, and membrane phosphatidylserine (PS) externalization
- caspase dependence of cell killing ([4]; ablated by pan caspase inhibitor z-VAD-fmk): caspase-dependent
- EC50 [5]: 4 nM
